{Cy3} = Cy3 fluorescent dye label
Key:
[1] = system: DNA-duplexes with oligo1 and oligo3; test: Differential force test comparing two DNA-duplexes (oligo2 with oligo1 versus oligo2 with oligo3); format: binding; conditions: for Q St = ΔCy3St/ΔCy5St: enrichment of Cy3-oligo2 relative to Cy5-oligo3; for Q Unt = ΔCy3Unt/ΔCy5Unt: depletion of Cy3-oligo2 relative to Cy5-oligo3
streptavidin [2] = target: T1, streptavidin (Streptomyces avidinii, UniProt P22629); test: Differential force test comparing biotin/streptavidin and iminobiotin/streptavidin complexes (pillar pressing); format: binding; conditions: for proportion of streptavidin transferred from the hapten on the substrate to the biotin-coated pillar: pH 10 buffer, 30 minutes contact, Alexa-Fluor-546 marked streptavidin
T1 construct: purchased Molecular Probes, Eugene
T1 sequence (P22629 25-183): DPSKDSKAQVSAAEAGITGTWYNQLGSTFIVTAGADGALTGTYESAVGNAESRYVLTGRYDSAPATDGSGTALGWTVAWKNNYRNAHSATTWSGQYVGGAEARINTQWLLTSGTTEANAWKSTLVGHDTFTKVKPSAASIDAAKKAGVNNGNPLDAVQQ
From the text: Biotin and iminobiotin are bound to a substrate. Fluorescence-marked streptavidin is bound to the immobilized haptens. A plunger or pillar which is coated with biotin is moved towards the substrate in such a way that the biotin which is bound to the pillar can bind the streptavidin coupled by way of the haptens to the substrate. The pillar is then removed again. To conclude, the procedure involves determining which proportion of the streptavidin was transferred from the iminobiotin of the substrate onto the biotin of the pillar and which proportion of the streptavidin was transferred from the biotin of the substrate onto the biotin of the pillar.
20 μl of a solution with 2 mg/100 μl of NHS-PEG-biotin (Shearwater, Huntsville) was incubated under a cover glass for 1 hour on a pillar with an area of 1 cm^2. It was washed with very pure water and blown dry with nitrogen.
A glass object carrier was cleaned by a 100-minute treatment with saturated KOH-ethanol solution. The cleaned surface was incubated with 3% aminosilane (3-aminopropyldimethyl-ethoxysilane; ABCR, Karlsruhe) in 10% H2O and 87% Ethanol for 30 minutes. The silanised surface was washed with very pure water and blown dry with nitrogen. […] The tBoc protective group was then split off with trifluoro-acetic acid. NHS-biotin and NHS-iminobiotin (Sigma, St. Louis) were respectively diluted starting from a 50 mM stock solution in DMSO to give a final concentration of 5 mM with PBS (phosphate buffered saline, Sigma). The attachment of biotin or iminobiotin respectively to the amino-functionalized glass substrate was effected from that solution. That was incubated for one hour in a saturated water atmosphere, washed with very pure water and blown dry with nitrogen.
For the purposes of binding the streptavidin AlexaFluor ? -546 conjugate (Molecular Probes, Eugene), a solution was produced, involving a concentration of 0.1 mg/ml in a glycine/NaOH-buffer (pH 10). The substrate was incubated for 20 minutes with the solution, then washed for 5 minutes in that buffer and blown dry with nitrogen. […]

avidin = avidin (Gallus gallus, UniProt P02701); conditions: AFM force spectrometer, Florin et al. Science 1994; cited from earlier work
Chain of avidin (P02701 25-152, species assumed): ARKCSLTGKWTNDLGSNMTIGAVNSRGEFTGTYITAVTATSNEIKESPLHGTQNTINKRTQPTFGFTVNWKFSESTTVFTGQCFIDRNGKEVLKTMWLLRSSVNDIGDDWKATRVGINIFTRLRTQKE

streptavidin [3] = target: T1, streptavidin; test: Force test with reverse pillar pressing, biotin/streptavidin versus desthiobiotin/streptavidin; format: binding
Description: The polymerized structured and unstructured PDMS plates were cut to a size of 1 cm^2. Then the pieces were exposed to an H2O plasma in a plasma furnace at 2 mbar for 30 s. The oxidized surface was incubated with a solution of 2% aldehyde silane (4-triethoxysilylbutanal, Amchro, Hattersheim, Germany) in 10% H2O and 88% ethanol for 30 minutes. The silanised surface was washed with ethanol and very pure water and blown dry with nitrogen.
The functionalized substrates and pillars were incubated overnight in PBS (phosphate buffered saline; Sigma, St. Louis, USA) with 2% BSA (bovine serum albumin; Roth, Karlsruhe, Germany). In that case BSA binds with its amino groups to the aldehyde groups of the surface. For stabilization purposes the resulting Schiff's bases were reduced with 1% sodium borohydride for 15 minutes. […]
Depending on the respective pillar composition a fluorescence-marked streptavidin-AlexaFluor ? -647 conjugate (Molecular Probes, Eugene) was bound to the substrate or the pillar. […]
The reverse implementation permits evaluation which is independent of the coupling efficiency. […] That assumption is permissible here by virtue of the very similar properties of the binding partners BP1 and BP4 to be compared (for example size) and can also be checked by measurement of fluorescence intensity prior to the pillar pressing procedure. […]

Molecule	Q St = ΔCy3St/ΔCy5St ([1]; pillar)	Q Unt = ΔCy3Unt/ΔCy5Unt ([1]; substrate)	proportion of streptavidin transferred from the hapten on the substrate to the biotin-coated pillar (streptavidin [2])	unbinding force of the receptor-ligand pair (avidin)	other results
5′TTGCTCCCAGACTCTCTGCTGAAAGTCCCTTTGATAATCGTAACGAGGGGTTATACGCCGTAAAGCCCGGAGA-Cy3 [oligo2a]	1.20 ± 0.08	0.69±0.09	–	–	unbinding force of the duplex with oligo3, higher than the duplex between oligo 2b and oligo3 ([1]; from QSt and QUnt): at least 500%; QSt = QA St/QB St ([1]; pillar, Experiment 2a relative to reference experiment 2b): 1.97; QA St corr. ([1]; pillar, corrected by factor 0.82): 0.98; QUnt = QA Unt/QB Unt ([1]; substrate, Experiment 2a relative to reference experiment 2b): 1.92; QA Unt corr. ([1]; substrate, corrected by factor 1.39): 0.96
O=C(O)CCCC[C@@H]1SC[C@@H]2NC(=O)N[C@@H]21 [biotin]	–	–	15%	160 pN	relative strength of the streptavidin-hapten bond (streptavidin [2]; biotin versus iminobiotin, assuming identical coupling efficiency and equal density): stronger
C[C@@H]1NC(=O)N[C@@H]1CCCCCC(=O)O [desthiobiotin]	–	–	–	–	quotient of the transfer to desthiobiotin and the transfer to biotin (streptavidin [3]; average of both tests): 0.18; binding force to streptavidin relative to biotin (streptavidin [3]; reverse pillar pressing): weaker
N=C1N[C@H]2[C@H](CS[C@H]2CCCCC(=O)O)N1 [iminobiotin]	–	–	30%	85±15 pN	–
5′ACTCTCTGCTGAAAGTCCCTTTGATAATCGTAACGAGGGGTTATACGCCGTAAAGCCGGAGA-Cy3 (nucleic acid, DNA, 3' {Cy3}, backbone not given here) ACTCTCTGCTGAAAGTCCCTTTGATAATCGTAACGAGGGGTTATACGCCGTAAAGCCGGAGA	0.61 ± 0.08	0.36±0.08	–	–	–

Reference: patent US20040086883A1, “Method and device for characterising and/or for detecting a bonding complex” (priority 2000, published 2004)
